Results as given in patent US11702426B2, “Macrocyclic deaza-purinones for the treatment of viral infections” (JANSSEN SCIENCES IRELAND UNLIMITED COMPANY, priority 2013, dated 2023).

Columns and labels:
human TLR7 = biological target: T1, human TLR7 (Homo sapiens, UniProt Q9NYK1); assay: HEK293 TLR7-NFκB-luc cellular reporter assay; assay type: cell-based; details: lowest effective concentration; HEK293 transiently transfected with TLR7 and NFκB-luc; 6 hours incubation
T1 construct: expressed in transfected cells; host or cells: HEK293
T1 sequence (Q9NYK1 27-1049): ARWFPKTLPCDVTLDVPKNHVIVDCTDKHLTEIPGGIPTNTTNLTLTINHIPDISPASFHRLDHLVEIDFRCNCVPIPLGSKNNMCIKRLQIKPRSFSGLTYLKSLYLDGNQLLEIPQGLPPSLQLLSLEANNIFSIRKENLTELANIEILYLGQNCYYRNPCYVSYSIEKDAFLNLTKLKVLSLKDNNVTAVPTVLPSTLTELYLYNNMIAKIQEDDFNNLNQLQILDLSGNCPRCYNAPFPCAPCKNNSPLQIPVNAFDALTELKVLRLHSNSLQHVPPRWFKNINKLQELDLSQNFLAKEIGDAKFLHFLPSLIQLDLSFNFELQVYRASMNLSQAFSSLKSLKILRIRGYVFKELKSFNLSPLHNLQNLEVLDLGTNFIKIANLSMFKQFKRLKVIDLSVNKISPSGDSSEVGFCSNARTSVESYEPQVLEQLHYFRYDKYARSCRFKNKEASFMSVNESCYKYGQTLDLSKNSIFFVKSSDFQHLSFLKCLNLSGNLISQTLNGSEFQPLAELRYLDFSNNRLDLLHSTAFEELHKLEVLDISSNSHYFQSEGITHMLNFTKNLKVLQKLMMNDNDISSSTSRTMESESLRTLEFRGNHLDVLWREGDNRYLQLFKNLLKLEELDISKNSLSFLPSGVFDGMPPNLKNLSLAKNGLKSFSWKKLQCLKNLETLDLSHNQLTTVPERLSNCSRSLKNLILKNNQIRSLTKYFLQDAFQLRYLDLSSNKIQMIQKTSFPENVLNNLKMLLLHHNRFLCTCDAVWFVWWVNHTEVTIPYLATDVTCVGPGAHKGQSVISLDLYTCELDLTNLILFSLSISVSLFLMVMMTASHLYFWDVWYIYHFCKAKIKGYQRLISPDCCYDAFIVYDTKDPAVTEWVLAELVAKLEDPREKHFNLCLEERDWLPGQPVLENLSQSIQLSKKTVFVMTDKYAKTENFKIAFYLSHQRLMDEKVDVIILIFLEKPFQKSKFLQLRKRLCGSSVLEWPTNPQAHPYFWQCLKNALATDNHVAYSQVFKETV
Experimental: The ability of compounds to activate human TLR7 and TLR8 was assessed in a cellular reporter assay using HEK293 cells transiently transfected with a TLR7 or TLR8 expression vector and NFκB-luc reporter construct. Briefly, HEK293 cells were grown in culture medium (DMEM supplemented with 10% FCS and 2 mM Glutamine). For transfection of cells in 15 cm dishes, cells were detached with Trypsin-EDTA, transfected with a mix of CMV-TLR7 or TLR8 plasmid (1,700 ng), NFκB-luc plasmid (850 ng) and a transfection reagent and incubated 48 hours at 37° C. in a humidified 5% CO2 atmosphere. Transfected cells were then washed in PBS, detached with Trypsin-EDTA, and resuspended in medium to a density of 1.25×10^5 cells/mL. Forty microliters of cells were then dispensed into each well in 384-well plates, where 200 nL of compound in 100% DMSO was already present. Following 6 hours incubation at 37° C., 5% CO2, the luciferase activity was determined by adding 15 μl of Steady Lite Plus substrate (Perkin Elmer) to each well and readout performed on a ViewLux ultraHTS microplate imager (Perkin Elmer). Dose response curves were generated from measurements performed in quadruplicates. Lowest effective concentrations (LEC) values, defined as the concentration that induces an effect which is at least two fold above the standard deviation of the assay, were determined for each compound.

[1] = tested on: interferon production in human PBMC; assay: Interferon production in human PBMC, read out on HEK-ISRE-luc reporter cells; assay type: cell-based; details: lowest effective concentration, PBMC incubated overnight with compound, supernatant transferred to HEK-ISRE-luc cells; for minimal effective concentration: Homo sapiens, PBMC, 24 h, read-out: PBMC HEK-ISRE-luc (LEC; μM); for PBMC HEK-ISRE-luc (LEC; μM): 24 hours
Experimental: Activation of human TLR7 results in robust production of interferon by plasmacytoid dendritic cells present in human blood. The potential of compounds to induce interferon was evaluated by determination of interferon in the conditioned media from peripheral blood mononuclear cells (PBMC). The presence of interferon in the samples was determined, using an interferon reporter cell line stably expressing an interferon-stimulated responsive elements (ISRE)-luc reporter construct. The ISRE element with sequence TAGTTTCACTTTCCC (SEQ ID NO: 1) is highly responsive to the STAT1-STAT2-IRF9 transcription factor, which becomes activated upon binding of IFN-I to the IFN receptor. Briefly, PBMCs were prepared from buffy coats of at least two donors using a standard Ficoll centrifugation protocol. Isolated PBMCs were resuspended in RPMI medium supplemented with 10% human AB serum and 2×10^5 cells/well were dispensed into 384-well plates containing compounds (70 μL total volume). After overnight incubation of the PBMCs with the compounds, 10 μL of supernatant was transferred to 384-well plates containing 5×10^3 HEK-ISRE-luc cells/well in 30 μL (plated the day before). Following 24 hours of incubation, activation of the ISRE elements was measured by assaying luciferase activity using 40 μL/well Steady Lite Plus substrate (Perkin Elmer) and measured with ViewLux ultraHTS microplate imager (Perkin Elmer). The stimulating activity of each compound on the HEK-ISRE-luc cells was reported as LEC. The LEC in turn indicates the degree of ISRE activation on transfer of a defined amount of PBMC culture medium. Recombinant interferon alfa-2a (Roferon-A) was used as a standard control compound.

Row | Compound | HEK293 TLR7-NFκB-luc (LEC; μM) (human TLR7) | minimal effective concentration [1] | PBMC HEK-ISRE-luc (LEC; μM) [1]
1 | Nc1nc2cc3c1nc(O)n3Cc1cc(F)cc(c1)OC/C=C/CCO2 [Compound 27] | 1.35 µM | 0.14 µM | –
2 | Nc1nc2cc3c1nc(O)n3Cc1cc(F)cc(c1)OCCCCCO2 [Compound 32] | 2.92 µM | 0.49 µM | –
3 | Nc1nc2cc3c1nc(O)n3Cc1cccc(c1)NCCCCCO2 [Compound 34] | 8.1 µM | 2.11 µM | –
4 | Nc1nc2cc3c1nc(O)n3Cc1cccc(c1)OCCCCO2 [Compound 2] | 4.47 µM | 0.93 µM | –
5 | Nc1nc2cc3c1nc(O)n3Cc1cccc(c1)OCCCCCO2 [Compound 14] | 7.01 µM | 2.4 µM | –
6 | Nc1nc2cc3c1nc(O)n3Cc1ccc(F)c(c1)OCCCCO2 [Compound 24] | – | 2.14 µM | –
7 | Nc1nc2cc3c1nc(O)n3Cc1ncccc1OC/C=C/CCO2 [Compound 5] | 2.14 µM | 0.082 µM | –
8 | Nc1nc2cc3c1nc(O)n3Cc1ccc(F)c(c1)OC/C=C/CO2 [Compound 16] | 2.02 µM | 0.47 µM | –
9 | Nc1nc2cc3c1nc(O)n3Cc1cccc(c1)C/C=C/CCO2 [Compound 3] | 0.27 µM | 0.033 µM | –
10 | Nc1nc2cc3c1nc(O)n3Cc1cc(F)cc(c1)OC/C=C/CO2 [Compound 30] | 0.64 µM | 0.15 µM | –
11 | COc1ccc2cc1OC/C=C/COc1cc3c(nc(O)n3CC2)c(N)n1 [Compound 36] | 13.75 µM | 1.63 µM | –
12 | Nc1nc2cc3c1nc(O)n3Cc1ncccc1OCCCCCO2 [Compound 6] | 1 µM | 0.16 µM | –
13 | Nc1nc2cc3c1nc(O)n3Cc1ccc(F)c(c1)OC/C=C/CCO2 [Compound 21] | 0.9 µM | 0.25 µM | –
14 | COc1cc2cc(c1)OC/C=C/COc1cc3c(nc(O)n3C2)c(N)n1 [Compound 12] | 1.08 µM | 0.3 µM | –
15 | Nc1nc2cc3c1nc(O)n3Cc1cccc(c1)OCC/C=C/CO2 [Compound 25] | 1.92 µM | 0.53 µM | –
16 | Nc1nc2cc3c1nc(O)n3Cc1cccc(c1)OC/C=C/CCCO2 [Compound 11] | 1.25 µM | 0.45 µM | –
17 | COc1cc2cc(c1)OCCCCOc1cc3c(nc(O)n3C2)c(N)n1 [Compound 13] | 1.71 µM | 0.15 µM | –

Row | Compound | HEK293 TLR7-NFκB-luc (LEC; μM) (human TLR7) | minimal effective concentration [1] | PBMC HEK-ISRE-luc (LEC; μM) [1]
18 | Cl.Nc1nc2cc3c1nc(O)n3Cc1ccc(F)c(c1)OC/C=C/CO2 [Compound 17] | 1.88 µM | – | 0.39 µM
19 | Nc1nc2cc3c1nc(O)n3Cc1cccc(c1)CCCCCN2 [Compound 9] | 11.09 µM | 10.9 µM | –
20 | Nc1nc2cc3c1nc(O)n3Cc1cccc(c1)OC/C=C/CO2 [Compound 1] | 2.88 µM | 0.3 µM | –
21 | Nc1nc2cc3c1nc(O)n3Cc1cccc(c1)NC/C=C/CCO2 [Compound 26] | 1.88 µM | 0.37 µM | –
22 | Nc1nc2cc3c1nc(O)n3CCc1cccc(c1)OC/C=C/CO2 [Compound 35] | 17.43 µM | 1.98 µM | –
23 | Nc1nc2cc3c1nc(O)n3Cc1cc(F)cc(c1)OCCCCO2 [Compound 33] | 2.77 µM | 0.45 µM | –
24 | Nc1nc2cc3c1nc(O)n3Cc1cccc(c1)NC/C=C\CCO2 [Compound 29] | 1.14 µM | 0.48 µM | –
25 | Nc1nc2cc3c1nc(O)n3Cc1cccc(c1)NCCCCO2 [Compound 23] | 16.74 µM | 8.98 µM | –
26 | COc1ccc2cc1OC/C=C/COc1cc3c(nc(O)n3C2)c(N)n1 [Compound 7] | 3.88 µM | 0.29 µM | –
27 | Cl.Nc1nc2cc3c1nc(O)n3Cc1cc(F)cc(c1)OC/C=C/CCO2 [Compound 28] | 0.91 µM | – | 0.15 µM
28 | COc1ccc2cc1OCCCCOc1cc3c(nc(O)n3C2)c(N)n1 [Compound 8] | 7.1 µM | 0.58 µM | –
29 | COc1cc2cc(c1)OC/C=C/CCOc1cc3c(nc(O)n3C2)c(N)n1 [Compound 15] | 0.18 µM | 0.04 µM | –
30 | Cl.Nc1nc2cc3c1nc(O)n3Cc1ccc(F)c(c1)OC/C=C/CCO2 [Compound 22] | 1.83 µM | – | 0.39 µM
31 | Cl.Nc1nc2cc3c1nc(O)n3Cc1ccc(F)c(c1)OCCCCCO2 [Compound 20] | 4.99 µM | – | 1.61 µM
32 | Nc1nc2cc3c1nc(O)n3Cc1ccc(F)c(c1)OCCCCCO2 [Compound 19] | 14.96 µM | 2.22 µM | –
33 | Nc1nc2cc3c1nc(O)n3Cc1cccc(c1)NC/C=C/CO2 [Compound 18] | 8.02 µM | 1.11 µM | –
34 | Cl.Nc1nc2cc3c1nc(O)n3Cc1cc(F)cc(c1)OC/C=C/CO2 [Compound 31] | 1.19 µM | – | 0.15 µM
